Results reported in patent publication US6737383B1, “Herbicidal oxadiazolidines” (priority 1999, dated 2004).

Experiments:
rape = experiment: Test B pre/postemergence rape; assay type: in vivo, Brassica napus
Method in brief: (§1)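 Test chemicals in a non-phytotoxic solvent mixture with surfactant were sprayed preemergence onto planted seeds and postemergence onto plants 2 to 18 cm tall (1- to 4-leaf stage). After twelve to sixteen days in a greenhouse, injury was visually rated against untreated controls from 0 (no effect) to 10 (complete control).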

sugar beet = experiment: Test B pre/postemergence sugar beet; assay type: in vivo, Beta vulgaris
Method in brief: as §1

purple nutsedge = experiment: Test B pre/postemergence purple nutsedge; assay type: in vivo, Cyperus rotundus
Method in brief: as §1

duck salad = experiment: Test B flood test duck salad; assay type: in vivo, Heteranthera limosa; conditions: for Plant response rating, Ducksalad (0 to 10 scale, 0 is no effect, 10 is complete control) / Ducksalad plant response rating (0 to 10 scale, 0 is no effect, 10 is complete control): flood test species, visual evaluation after twelve to sixteen days; for Plant response rating, Ducksalad (0 to 10 scale, 0 is no effect, 10 is complete control): Pre-emergence; for Ducksalad plant response rating (0 to 10 scale, 0 is no effect, 10 is complete control): under heading Pre-emergence
Method in brief: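 Each value is a visual injury score relative to controls, with 10 meaning complete control and 0 no effect. Evaluation took place twelve to sixteen days after the 2-leaf-stage plants were treated and kept in the greenhouse.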

[1] = Postemergence, Rate 62 g/ha, scale 0 to 10, 0 is no effect, 10 is complete control
[2] = Postemergence, Rate 250 g/ha, scale 0 to 10, 0 no effect, 10 complete control
[3] = Preemergence, Rate 62 g/ha, scale 0 to 10 (0 no effect, 10 complete control)
[4] = Preemergence, Rate 125 g/ha, scale 0 to 10 (0 no effect, 10 complete control)
[5] = Preemergence, Rate 250 g/ha, scale of 0 to 10 where 0 is no effect and 10 is complete control
[6] = Preemergence, Rate 500 g/ha, scale 0 (no effect) to 10 (complete control)
[7] = Rate 125 g/ha, Postemergence, scale 0 to 10, 0 no effect, 10 complete control
[8] = Rate 500 g/ha, Postemergence, scale 0 to 10, 0 no effect, 10 complete control
[9] = Postemergence, Rate 31 g/ha, visual rating, scale 0 to 10 (0 no effect, 10 complete control)
[10] = Postemergence, Rate 250 g/ha, scale 0 to 10
[11] = Preemergence, Rate 62 g/ha, scale of 0 to 10 where 0 is no effect and 10 is complete control
[12] = Preemergence, Rate 125 g/ha, scale of 0 to 10 where 0 is no effect and 10 is complete control
[13] = Preemergence, Rate 250 g/ha, scale 0 to 10, 0 is no effect, 10 is complete control
[14] = Rate 62 g/ha, Postemergence, scale 0 to 10 (0 no effect, 10 complete control)
[15] = Rate 125 g/ha, Postemergence, scale 0 to 10, 0 is no effect, 10 is complete control
[16] = Rate 250 g/ha, Pre-emergence (flood test species), scale 0 to 10, 0 is no effect, 10 is complete control
[17] = Postemergence, Rate 62 g/ha, scale of 0 to 10, 0 is no effect, 10 is complete control
[18] = Postemergence, Rate 125 g/ha, scale of 0 to 10 where 0 is no effect and 10 is complete control
[19] = Postemergence, Rate 500 g/ha, scale of 0 to 10 where 0 is no effect and 10 is complete control
[20] = Preemergence, Rate 500 g/ha, scale of 0 to 10 where 0 is no effect and 10 is complete control
[21] = Rate 250 g/ha, Postemergence, scale of 0 to 10 where 0 is no effect and 10 is complete control

Cc1cc(C)c(-n2c(=O)on(C(=O)N(c3ccc(F)cc3)C(C)C)c2=O)c(C)c1 [Compound 60]
4: Rape plant response rating (rape; [8])
3: Plant response rating, Sugarbeets (sugar beet; [5])
5: Sugarbeets plant response rating (sugar beet; [6])
0: Rape plant response rating (rape; [1]) | Rape plant response rating (rape; [2]) | Rape plant response rating (rape; [3]) | Plant response rating, Rape (rape; [4]) | Plant response rating, Rape (rape; [5]) | Rape plant response rating (rape; [6]) | Rape plant response rating (rape; [7]) | Sugarbeets plant response rating (sugar beet; [1]) | Sugarbeets plant response rating (sugar beet; [2]) | Sugarbeets plant response rating (sugar beet; [3]) | Plant response rating, Sugarbeets (sugar beet; [4]) | Sugarbeets plant response rating (sugar beet; [7]) | Sugarbeets plant response rating (sugar beet; [8]) | Nutsedge plant response rating (purple nutsedge; [1]) | Nutsedge plant response rating (purple nutsedge; [2]) | Nutsedge plant response rating (purple nutsedge; [3]) | Plant response rating, Nutsedge (purple nutsedge; [4]) | Plant response rating, Nutsedge (purple nutsedge; [5]) | Nutsedge plant response rating (purple nutsedge; [6]) | Nutsedge plant response rating (purple nutsedge; [7]) | Nutsedge plant response rating (purple nutsedge; [8]) | Ducksalad plant response rating (duck salad; [1]) | Ducksalad plant response rating (duck salad; Rate 125 g/ha, Postemergence section (flood test species), scale 0 to 10, 0 no effect, 10 complete control) | Ducksalad plant response rating (duck salad; Rate 500 g/ha, listed under Postemergence (flood test species), scale 0 to 10, 0 no effect, 10 complete control) | Ducksalad plant response rating (duck salad; flood test, listed under Postemergence, Rate 250 g/ha, scale 0 to 10, 0 no effect, 10 complete control)

Cc1nc(C)c(C(C)n2c(=O)on(C(=O)N(c3ccccc3)C(C)C)c2=O)s1 (stereo not drawn) [Compound 442]
0: Rape plant response rating (rape; [9]) | Rape plant response rating (rape; [10]) | Plant response rating, Rape (rape; [11]) | Plant response rating, Rape (rape; [12]) | Rape plant response rating (rape; [13]) | Rape plant response rating (rape; [14]) | Rape plant response rating (rape; [15]) | Sugarbeets plant response rating (sugar beet; [9]) | Sugarbeets plant response rating (sugar beet; [10]) | Plant response rating, Sugarbeets (sugar beet; [11]) | Plant response rating, Sugarbeets (sugar beet; [12]) | Sugarbeets plant response rating (sugar beet; [13]) | Sugarbeets plant response rating (sugar beet; [14]) | Sugarbeets plant response rating (sugar beet; [15]) | Nutsedge plant response rating (purple nutsedge; [9]) | Nutsedge plant response rating (purple nutsedge; [10]) | Plant response rating, Nutsedge (purple nutsedge; [11]) | Plant response rating, Nutsedge (purple nutsedge; [12]) | Nutsedge plant response rating (purple nutsedge; [13]) | Nutsedge plant response rating (purple nutsedge; [14]) | Nutsedge plant response rating (purple nutsedge; [15]) | Ducksalad plant response rating (duck salad; Rate 31 g/ha, Pre-emergence section (flood test species), scale 0 to 10) | Plant response rating, Ducksalad (0 to 10 scale, 0 is no effect, 10 is complete control) (duck salad; Rate 62 g/ha) | Ducksalad plant response rating (0 to 10 scale, 0 is no effect, 10 is complete control) (duck salad; Rate 125 g/ha) | Ducksalad plant response rating (duck salad; [16])

CC(C)N(C(=O)n1oc(=O)n(CC2CCC2)c1=O)c1ccccc1 [Compound 580]
7: Rape plant response rating (0 to 10 scale) (rape; Preemergence, Rate 250 g/ha) | Plant response rating, Rape (rape; [21])
6: Plant response rating, Rape (rape; [18]) | Plant response rating, Sugarbeets (sugar beet; [19])
8: Plant response rating, Rape (rape; [19]) | Rape plant response rating (rape; [20])
5: Sugarbeets plant response rating (sugar beet; [20]) | Plant response rating, Sugarbeets (sugar beet; [21]) | Nutsedge plant response rating (purple nutsedge; [20])
3: Rape plant response rating (rape; [12])
0: Rape plant response rating (rape; [3]) | Sugarbeets plant response rating (sugar beet; [3]) | Sugarbeets plant response rating (sugar beet; [12]) | Nutsedge plant response rating (purple nutsedge; [17]) | Plant response rating, Nutsedge (purple nutsedge; [18]) | Nutsedge plant response rating (purple nutsedge; [3]) | Nutsedge plant response rating (purple nutsedge; [12]) | Nutsedge plant response rating (0 to 10 scale) (purple nutsedge; Preemergence, Rate 250 g/ha) | Plant response rating, Ducksalad (0 to 10 scale, 0 is no effect, 10 is complete control) (duck salad; Rate 62 g/ha) | Ducksalad plant response rating (0 to 10 scale, 0 is no effect, 10 is complete control) (duck salad; Rate 125 g/ha) | Ducksalad plant response rating (duck salad; [16]) | Ducksalad plant response rating (duck salad; Rate 500 g/ha, Pre-emergence section of Table B, 0 to 10 scale (0 no effect, 10 complete control))
4: Rape plant response rating (rape; [17]) | Plant response rating, Sugarbeets (sugar beet; [18]) | Sugarbeets plant response rating (0 to 10 scale) (sugar beet; Preemergence, Rate 250 g/ha)
